Our source for the Activity, CC50 and inhibition values is ChEMBL document CHEMBL5380814, “Targeting Receptor-Interacting Protein Kinase 1 by Novel Benzothiazole Derivatives: Treatment of Acute Lung Injury through the Necroptosis Pathway” (J Med Chem, 2023).

The structures appear in SMILES notation. Calls of active or inactive are those of the source. The rule behind the calls is not given here.

The subject of assay [1] is U-937. The assay can be described thus: Anti-necroptotic activity in human U-937 cells assessed as protection against human TNFalpha/cycloheximide/Z-VAD-FMK induced necroptosis preincubated with compound at 1 to 7 uM for 16 to 24 hrs followed by TCZ stimulation for 12 hrs measured by cell-titre glo luminescent cell viability assay. It counts as functional, cell-based. To be noted: dose 1-7 µM, time 28-36 hrs.

Assay [2] deals with Mus musculus. The assay can be described thus: In vivo anti-inflammatory activity in NNK induced induced C57BL/6J ALI mouse model assessed as less bleeding point in lung pretreated at 25 to 100 mg/kg, ip for 1 hr followed by NNK administration by HE staining analysis. It counts as functional, organism-based. To be noted: dose 25-100 mg/kg.
For assay [3], the system named is Mus musculus. As to the kind of experiment: In vivo anti-inflammatory activity in NNK induced induced C57BL/6J ALI mouse model assessed as decrease in lung IL-6 mRNA level pretreated at 25 to 100 mg/kg, ip for 1 hr followed by NNK administration. Particulars: dose 25-100 mg/kg. The class given is functional, organism-based.
The subject of assay [4] is HT-29. The assay can be described thus: Cytotoxicity against human HT-29 cells incubated at 100 uM for 16 to 24 hrs measured by cell-titre glo luminescent cell viability assay. It counts as functional, cell-based. To be noted: time 16-24 hrs.
For assay [5], the system named is Mus musculus. As to the kind of experiment: In vivo anti-inflammatory activity in NNK induced induced C57BL/6J ALI mouse model assessed as less congestion in lung pretreated at 25 to 100 mg/kg, ip for 1 hr followed by NNK administration by HE staining analysis. To be noted: dose 25-100 mg/kg. It counts as functional, organism-based.
In assay [6] the test system is Mus musculus. As to the kind of experiment: In vivo anti-inflammatory activity in NNK induced induced C57BL/6J ALI mouse model assessed as decrease in bronchoalveolar lavage fluid (BALF) IL-6 level pretreated at 25 to 100 mg/kg, ip for 1 hr followed by NNK administration. The class given is functional, organism-based. To be noted: dose 25-100 mg/kg.
For assay [7], the system named is Mus musculus. As to the kind of experiment: In vivo anti-necrotoptic activity in NNK induced induced C57BL/6J ALI mouse model assessed as reduction in RIPK1 phosphorylation pretreated at 100 mg/kg, ip for 1 hr followed by NNK administration. It counts as functional. Details: scale not given: the % may be the effect or the level left.
In assay [8] the test system is HT-29. The assay can be described thus: Anti-necroptotic activity in TSZ induced human HT-29 cells assessed as inhibition of necrosome formation preincubated with compound at 1 uM for 6 hrs followed by TSZ stimulation for 6 hrs measured by cell-titre glo luminescent cell viability assay. To be noted: time 12.0 hrs. It counts as functional, cell-based.
The test system of assay [9] is HT-29. As to the kind of experiment: Cytotoxicity against human HT-29 cells incubated for 16 to 24 hrs measured by cell-titre glo luminescent cell viability assay. The class given is functional. To be noted: time 16-24 hrs.
For assay [10], the system named is Mus musculus. As to the kind of experiment: In vivo anti-necrotptic activity in mTNFalpha induced C57BL/6J SIRS mouse model assessed as protection from body temperature loss pretreated at 10 mg/kg, po for 1 hr followed by mTNFalpha/Z-VAD-FMK administration measured after 45 mins by electric thermometer. Particulars: time 105.0 min. The class given is functional, organism-based.

Assay [11] has as its target T1, Mixed lineage kinase domain-like protein (Homo sapiens) (UniProt Q8NB16).
T1 sequence (whole entry): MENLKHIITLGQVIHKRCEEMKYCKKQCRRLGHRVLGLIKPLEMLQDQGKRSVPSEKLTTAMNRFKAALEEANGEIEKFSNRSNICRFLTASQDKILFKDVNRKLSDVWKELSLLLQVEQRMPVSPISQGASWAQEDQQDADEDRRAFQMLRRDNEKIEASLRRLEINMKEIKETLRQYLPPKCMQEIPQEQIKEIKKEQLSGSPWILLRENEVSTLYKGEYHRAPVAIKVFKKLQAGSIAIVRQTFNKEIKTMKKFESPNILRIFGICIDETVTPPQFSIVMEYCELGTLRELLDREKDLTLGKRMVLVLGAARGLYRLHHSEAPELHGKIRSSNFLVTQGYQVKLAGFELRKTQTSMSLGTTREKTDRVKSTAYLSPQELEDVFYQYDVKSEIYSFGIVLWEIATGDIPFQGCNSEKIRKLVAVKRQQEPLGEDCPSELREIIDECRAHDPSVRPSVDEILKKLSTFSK
The assay can be described thus: Inhibition of MLKL phosphorylation in TSZ-induced human HT-29 cells assessed as blocking of TSZ-induced necrosome formation at 1 uM pretreated with compound for 0 to 6 hrs followed by TSZ stimulation for 6 hrs measured by Western analysis. It counts as cell-based. To be noted: time 6-12 hrs.

The subject of assay [12] is Mus musculus. The assay can be described thus: In vivo anti-inflammatory activity in NNK induced induced C57BL/6J ALI mouse model assessed as lung injury score pretreated at 100 mg/kg, ip for 1 hr followed by NNK administration relative to disease model (reference value: 5.7 +/- 0.5). It counts as functional.
Assay [13] deals with Receptor-interacting serine/threonine-protein kinase 3 (Homo sapiens, UniProt Q9Y572). As to the kind of experiment: Inhibition of RIPK3 phosphorylation in TSZ-induced human HT-29 cells assessed as blocking of TSZ-induced necrosome formation at 0.5 uM pretreated with compound for 6 hrs followed by TSZ stimulation for 6 hrs measured by Western analysis. The class given is cell-based. To be noted: time 12.0 hrs.
Chain of Receptor-interacting serine/threonine-protein kinase 3 (Q9Y572 whole entry, looked up): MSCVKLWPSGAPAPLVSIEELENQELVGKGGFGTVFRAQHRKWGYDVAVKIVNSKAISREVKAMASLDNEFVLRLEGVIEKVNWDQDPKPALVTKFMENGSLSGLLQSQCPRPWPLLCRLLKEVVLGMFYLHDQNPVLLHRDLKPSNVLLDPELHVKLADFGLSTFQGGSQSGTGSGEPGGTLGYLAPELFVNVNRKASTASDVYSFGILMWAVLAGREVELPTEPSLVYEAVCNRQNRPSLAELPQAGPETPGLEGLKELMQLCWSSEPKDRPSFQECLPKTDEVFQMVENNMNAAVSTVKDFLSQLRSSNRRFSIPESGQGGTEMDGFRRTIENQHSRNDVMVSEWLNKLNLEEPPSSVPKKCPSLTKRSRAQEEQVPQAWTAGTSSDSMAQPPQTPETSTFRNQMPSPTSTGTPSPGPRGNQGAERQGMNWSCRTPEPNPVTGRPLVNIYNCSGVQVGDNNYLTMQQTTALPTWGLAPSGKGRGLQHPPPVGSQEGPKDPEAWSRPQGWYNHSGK

With `CCS(=O)(=O)NC1CCC(C(=O)Nc2nc3cc(F)c(Oc4ccc(F)c(NC(=O)Cc5cccc(C(F)(F)F)c5)c4)cc3s2)CC1` (stereo not drawn), the outcome in assay [1], in assay [2], in assay [3], in [4], in assay [5] and in [6] was Active. In addition, the result in [8] and in assay [10] was Active. Besides, the Activity worked out at 100% in assay [7] and 2.7 in assay [12]. For the same compound, in assay [9], the CC50 was > 100 µM. The inhibition entry in assay [11] and in assay [13] was “Active” in each case.
